Bridge positions count the residues as written; N and C are the ends. Square brackets hold non-standard residues; d marks the D form. Peptide text beside a SMILES is read from it. ξ: configuration not given here. d2Nal = N[C@H](Cc1ccc2ccccc2c1)C(=O)O; Thr(3ξ) = CC(O)[C@H](N)C(=O)O
Experiments:
[1] = molecular target: T1, somatostatin receptors sub-type 2 (Homo sapiens, UniProt P30874); assay: Affinity for somatostatin receptors: inhibition of [125I-Tyr11]SRIF-14 binding to membranes of transfected CHO-K1 cells; settings: competitive inhibition of [125I-Tyr11]SRIF-14 binding, 37° C.
T1 construct: expressed in transfected cells; membrane preparations
Method: (§1) The affinity of the compounds of the invention for the somatostatin receptors is determined by measurement of the inhibition of the bond of [125I-Tyr11]SRIF-14 to membrane preparations of transfected CHO-K1 cells.
(§2) The CHO-K1 cells expressing in a stable fashion each of the sub-types of somatostatin receptors are collected with 0.5 mM of EDTA and centrifuged at 500 g for 5 minutes at 4° C. The pellet is re-suspended in phosphate buffer (PBS) and centrifuged at 500 g for 5 minutes at 4° C. The pellet is re-suspended in Tris 50 mM buffer at pH 7.4 and centrifuged at 500 g for 5 minutes at 4° C. The cells are lyzed by sonication and centrifuged at 39,000 g for 10 minutes. The pellet is re-suspended in Tris 50 mM buffer at pH 7.4, an aliquot is removed for assaying the proteins and the remainder is centrifuged at 50,000 g for 10 minutes. The membranes obtained in this last pellet are stored at −80° C.
(§3) Measurement of the competitive inhibition of the bond of [125I-Tyr11]SRIF-14 (Perkin Elmer) on each of the sub-types of somatostatin receptors is carried out in duplicate in 96-well polypropylene plates. The cell membranes (5 to 20 µg of proteins/well) are incubated with [125I-Tyr11]SRIF-14 (0.05 to 0.1 nM) for 50 to 90 minutes at 37° C. (conditions dependent on the sub-type of receptor) in a HEPES buffer medium 50 mM pH 7.4, comprising 0.2% bovine serum albumin (BSA), MgCl2 5 mM, Trasylol 200 KIU/mL, Bacitracin 0.02 mg/mL, phenylmethylsulphonyl fluoride 0.02 mg/mL.
(§4) The bound [125I-Tyr11]SRIF-14 is separated from the free [125I-Tyr11]SRIF-14 by filtration through GF/C glass fibre plates (Unifilter, Perkin Elmer) pre-impregnated with 0.1% polyethylenimine (P.E.I.), using a Filtermate 96 (Perkin Elmer). The filters are washed with Tris-HCl buffer 50 mM, pH 7.4 at 4° C. and the radioactivity present is determined using a counter (TopCount, Perkin Elmer).
(§5) The data are analyzed by computer-assisted non-linear regression using XLfit 4.2 (IDBS) software.

[2] = molecular target: T2, somatostatin receptors sub-type 5 (Homo sapiens, UniProt P35346); assay: as above; settings: competitive inhibition of [125I-Tyr11]SRIF-14 binding, 37° C.
T2 construct: expressed in transfected cells; membrane preparations
Method: as §1, §2, §3, §4, §5

[3] = Rheology of solutions/gels of the octapeptides (oscillatory, cone/plane rheometer); format: physicochemical; settings: 25° C.
Method: The viscous and viscoelastic properties of the solutions/gels of the compounds according to the invention can be studied by rheology according to the operating methods described hereafter.
The measurements are in general carried out using a rheometer of “Control Stress Haake 600” type (Haake, Germany) equipped with a cone/plane measurement geometry, with a cone 20 mm in diameter, an angle of 1 degree and an air gap of 52 microns. The measurement temperature is fixed at 25° C. +/−0.2° C. using a thermostatically-controlled bath but can be adjusted if necessary.
Two complementary types of tests are carried out, on the one hand measurements in static mode and on the other hand measurements in dynamic mode (oscillatory rheology); both are briefly described hereafter. […]
For the dynamic measurements, a shear strain (γ0) […] of sinusoidal type, of known amplitude and frequency is applied to the sample. The resultant sinusoidal shear stress is measured (amplitude τ0). […] In this case, the sine curves recorded for the shear strain and the shear stress having a phase angle difference δ. The values of τ0, γ0 and δ make it possible to access the viscoelastic parameters:
The storage modulus (also called elastic modulus) is a measurement of the elastic energy stored (or restored) per unit volume, whilst the loss modulus is a measurement of the energy dissipated per unit volume. These moduli must be calculated in the linear viscoelastic region (i.e. experimental conditions for which these moduli are independent of the amplitude of the shear stress (strain)). These experimental conditions are in general determined by a so-called “stress sweep” experiment which consists of a measurement of the elastic modulus and the loss modulus as a function of the amplitude of the deformation imposed (for a given frequency, typically 1Hz). In general, in the case of small deformations, G′ and G″ vary very little with the deformation. Then, on passing the yield point, a strong reduction in G′ and a maximum of G″ is observed. This transition delimits the linear viscoelasticity region. When the linear viscoelasticity region is known, other tests can be carried out such as “frequency sweep” measurements consisting of measuring the dependence of G′ and G″ as a function of shear frequency at a fixed deformation amplitude, comprised in the linear viscoelasticity region.
The critical deformation is the deformation from which the elastic modulus dependent on the deformation applied at a constant frequency. For higher deformations, the material looses its viscoelastic properties and tends to become more viscous than elastic. […]

[4] = Static release test in PBS; format: physicochemical; settings: 75 mM starting concentration, PBS pH 7.4, 37° C., % of free compound
Method: Release studies can be carried out on the octapeptide compounds according to the invention in the form of gel, solid, or in suspension. Two types of tests can be envisaged: static release tests and/or dynamic tests, both are briefly described hereafter.
The experimental parameters are common to both types of tests. The release medium is a liquid medium which is physico-chemically well-controlled, preferably a PBS (phosphate buffer saline) buffer adjusted to pH 7.4 and maintained at 37° C. The release curve is defined as the concentration of the studied compound in the dissolution medium (expressed in % of free compound) as a function of time (minutes, hours, days). To initiate the tests, a know quantity of sample is placed in the dissolution medium at time 0 (t=0 min/h/d), the sample being optionally conditioned in a device which is suited to its initial physical state (gel, solid, suspension). Measurements of the concentration of the compound in the release medium are carried out by one or more analytical methods which are well known in the state of the art such as UV-visible spectrophotometry or the HPLC (High Performance Liquid Chromatography). The parameters of the analytical methods are adjusted as a function of the physico-chemical characteristics of the compounds. […]

T1 sequence (P30874 whole entry): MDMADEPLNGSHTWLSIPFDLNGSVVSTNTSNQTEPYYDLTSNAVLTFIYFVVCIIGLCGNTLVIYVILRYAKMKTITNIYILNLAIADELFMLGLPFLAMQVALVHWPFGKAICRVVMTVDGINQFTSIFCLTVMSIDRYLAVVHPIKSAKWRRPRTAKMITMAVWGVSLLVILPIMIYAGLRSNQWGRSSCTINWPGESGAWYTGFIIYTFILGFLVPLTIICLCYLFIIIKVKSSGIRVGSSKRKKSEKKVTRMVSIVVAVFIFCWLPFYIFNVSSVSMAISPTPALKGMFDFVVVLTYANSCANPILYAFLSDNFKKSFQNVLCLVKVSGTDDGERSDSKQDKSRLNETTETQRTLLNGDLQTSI
T2 sequence (P35346 whole entry): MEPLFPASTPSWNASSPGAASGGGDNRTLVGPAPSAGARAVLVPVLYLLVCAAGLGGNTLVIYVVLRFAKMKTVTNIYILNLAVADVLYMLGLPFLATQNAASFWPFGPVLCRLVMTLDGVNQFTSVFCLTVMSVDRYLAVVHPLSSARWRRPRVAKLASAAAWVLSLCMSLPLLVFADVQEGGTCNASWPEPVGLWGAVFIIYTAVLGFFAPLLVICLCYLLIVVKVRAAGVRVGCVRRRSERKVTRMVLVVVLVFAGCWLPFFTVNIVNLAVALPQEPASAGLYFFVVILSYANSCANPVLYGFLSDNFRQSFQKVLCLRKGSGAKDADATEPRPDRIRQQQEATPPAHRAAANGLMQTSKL

Ki [1] [nM] | Ki [2] [nM] | Critical deformation rheology ([3]; 75 mM) | Storage modulus rheology ([3]; 75 mM) | Critical deformation rheology ([3]; 226 mM) | Storage modulus rheology ([3]; 226 mM) | Static release after 48 h [4] [%] | Compound
≤ 700 | ≤ 5000 | Viscosity | Viscosity | 360 Pa | 150,000 Pa | – | CC(C)[C@@H]1NC(=O)[C@H](CCCCN)NC(=O)[C@@H](Cc2c[nH]cn2)NC(=O)[C@H](Cc2ccc(O)cc2)NC(=O)[C@@H](NC(=O)[C@H](N)Cc2ccc3ccccc3c2)CSSC[C@@H](C(=O)N[C@H](C(N)=O)C(C)O)NC1=O (stereo partly drawn) [Example 3, H-D-2-Nal^1-cyclo(Cys^2-Tyr^3-D-His^4-Lys^5-Val^6-Cys^7)-Thr^8-NH2.2 CH3COOH] (H-[d2Nal]CY[dH]KVC[Thr(3ξ)]-NH2; disulfide 2-7)
≤ 5000 | – | 800 Pa | 184,000 Pa | 18,600 Pa | >2,700,000 Pa | 85 | CC(C)[C@@H]1NC(=O)[C@H](CCCCN)NC(=O)[C@@H](C)NC(=O)[C@H](Cc2ccc(O)cc2)NC(=O)[C@@H](NC(=O)[C@H](N)Cc2ccc3ccccc3c2)CSSC[C@@H](C(=O)N[C@H](C(N)=O)C(C)O)NC1=O (stereo partly drawn) [Example 4, H-D-2-Nal^1-cyclo(Cys^2Tyr^3-D-Ala^4-Lys^5-Val^6Cys^7)-Thr^8-NH2.2 CH3COOH] (H-[d2Nal]CY[dA]KVC[Thr(3ξ)]-NH2; disulfide 2-7)
≤ 5 | ≤ 100 | 5000 Pa | 643,500 Pa | 8500 Pa | >2,700,000 Pa | 25 | CC(C)[C@@H]1NC(=O)[C@H](CCCCN)NC(=O)[C@@H](Cc2cccc3ccccc23)NC(=O)[C@H](Cc2ccc(O)cc2)NC(=O)[C@@H](NC(=O)[C@H](N)Cc2ccc3ccccc3c2)CSSC[C@@H](C(=O)N[C@H](C(N)=O)C(C)O)NC1=O (stereo partly drawn) [Example 6, H-D-2-Nal^1-cyclo(Cys^2Tyr^3-13-(1-naphthyl)-D-Ala^4-Lys^5-Val^6-Cys^7)-Thr^8-NH2.2 CH3COOH]

— patent publication US9382306B2, “Octapeptide compounds derived from somatostatin and the therapeutic use thereof” (IPSEN PHARMA S.A.S., priority 2008, dated 2016)
